Experimental data published in US20260297060A1, “COMPOUNDS FOR THE DEGRADATION OF MUTANT BRAF” (C4 THERAPEUTICS, INC., priority 2023, published 2026).
Where two headings read alike, the source gives them in different places.

Columns and labels:
[1] = test system: A375 human melanoma xenografts; experiment: Example 6 efficacy study in A375 human melanoma xenografts (tumor volume, T/C, TGI); assay type: in vivo, BALB/c nude mice; conditions: 10 mg/kg, p.o., BID × 21 days; for T/C / TGI / Tumor Size on PG-D21: PG-D21; for Tumor Size on PG-D21 / Tumor volume: Mean ± SEM
Protocol: For efficacy study, compounds were tested in the A375 human melanoma xenografts. Known BRAF inhibitors encorafenib, and dabrafenib were used as positive controls. Encorafenib and dabrafenib were administered to BALB/c nude mice bearing A375 tumors on PG-D1 and dosed PO daily (QD) for 3 weeks. Encorafenib was dosed at 35 mg/kg. Dabrafenib was dosed at 100 mg/kg. Compound 83, Compound 93, Compound 70, and Compound 54 were administered to BALB/c nude mice bearing A375 tumors on PG-DO and dosed PO twice per day (BID) for 3 weeks. Compound 83, Compound 93, Compound 70, and Compound 54 were dosed at 10 mg/kg.
The A375 tumor cells were maintained in vitro in DMEM medium supplemented with […] and 1% Penicillin-Streptomycin at 37° C. in an atmosphere of 5% CO2 in air. The tumor cells were routinely subcultured twice weekly. The cells growing in an exponential growth phase were harvested and counted for tumor inoculation.
Each mouse was inoculated subcutaneously at the right flank with A375 tumor cells (5×10^6) in 0.2 mL of PBS with Matrigel (PBS: Matrigel=1:1) supplemented for tumor development. Animals were grouped for the treatment on day 16 after tumor inoculation when the average tumor volume reached 221 mm^3 for efficacy study and 386 mm^3 for PKPD study. The test articles administration and the animal numbers in each group are shown in the above experimental Tables.
Prior to the onset of drug treatment, mice were measured for tumor size in two dimensions using a caliper, and the tumor volume (mm^3) was calculated using formula V=0.5 a×b^2 where a and b are the long and short diameters of the tumor in mm, respectively. Mice were randomized into different treatment groups based on the tumor volume.
The major endpoint was to see if the tumor growth could be delayed or mice could be cured. The tumor size was then used for calculations of T/C value. The T/C value (in percent) is an indication of antitumor effectiveness; T and C are the mean volumes of the treated and control groups, respectively on specified day.
TGI was calculated for each group using the formula: TGI (%)=[1−(Ti−T0)/(Ci−C0)]×100; Ti is the average tumor volume of a treatment group on a given day, T0 is the average tumor volume of the treatment group on the day of treatment start, Ci is the average tumor volume of the vehicle control group on the same day with Ti, and C0 is the average tumor volume of the vehicle group on the day of treatment start.

[2] = Example 7 pharmacokinetics assay for PKPD study (plasma, tumor, liver); assay type: in vivo, BALB/c nude mice; conditions: mouse, po, 10 mg/kg, p.o., single dose
Protocol: For the PK and PD study, agents were administered to BALB/c nude mice bearing A375 human melanoma xenografts tumors. Dabrafenib, Compound 141, Compound 118, Compound 156, and Compound 180 were dosed p.o. once on day 1. Known BRAF inhibitor Dabrafenib was used as a positive control. Dabrafenib was dosed at 100 mg/kg. Compound 141, Compound 118, Compound 156, and Compound 180 were dosed at 10 mg/kg.
The plasma samples were collected at predetermined time points for PK analysis. The mice were euthanized at predetermined time points post the treatment. The blood samples were collected into the 1.5 mL Eppendorf tubes containing 15 μL of 0.5 M EDTA-K2. And then the anticoagulant blood samples were centrifuged at 2,500 g at 4° C. for 15 minutes. The plasma samples were separated into 2 aliquots. The 1st was used for PK analysis, and the 2nd served as backup. The samples were stored at −80° C. before bioanalysis.
The tumor samples were collected at predetermined time points for PK and WB analysis. The tumor was dissected out and split into 3 parts. The 1st part was used for PK analysis, the 2nd part was used for WB analysis and the last one served as backup for study. The samples were transferred into pre-labeled tubes and quickly froze in liquid nitrogen within 2 minutes after dissection. The samples were stored at −80° C. before bioanalysis.
Liver samples were collected at predetermined time points for PK analysis. The left lobe of the liver was dissected out and split into 2 parts. The 1st part was used for PK analysis and the 2nd part served as the backup for the study. The samples were transferred into pre-labeled tubes and quickly froze in liquid nitrogen within 2 minutes after dissection. The samples were stored at −80° C. before bioanalysis.
The harvested plasma and liver samples were processed for pharmacokinetics analysis by LC-MS/MS with a concentration range of 0.500-1000 ng/mL for Dabrafenib, Compound 118 and Compound 180 in plasma, 0.100~200 ng/ml for Dabrafenib in Liver and tumor homogenate, 50.0~50,000 ng/mL for Compound 141 in plasma and Liver homogenate, 1.00-1000 ng/ml for Compound 141 in tumor homogenate, 2.00~2000 ng/mL for Compound 118 and Compound 180 in Liver and 0.200~200 ng/ml in tumor homogenate, 1.00~2000 ng/mL for Compound 156 in plasma, 0.500-1000 ng/ml in liver and 0.500-1,000 ng/ml in tumor homogenate.

[3] = liver, read-out: Concentration in Liver (mean ± SEM)
[4] = plasma, read-out: Concentration in Plasma (mean ± SEM)
[5] = tumor, read-out: Concentration in Tumor (mean ± SEM)

concentration at 6 h [2, 3]	concentration at 12 h [2, 3]	concentration at 1 h [2, 4]	concentration at 6 h [2, 4]	concentration at 12 h [2, 4]	concentration at 24 h [2, 4]	concentration at 1 h [2, 5]	concentration at 6 h [2, 5]	concentration at 12 h [2, 5]	concentration at 24 h [2, 5]	Compound	T/C [1]	TGI [1]	Tumor Size on PG-D21 [1]	Tumor volume ([1]; day 0)	Tumor volume ([1]; day 4)	Tumor volume ([1]; day 7)	Tumor volume ([1]; day 11)	Tumor volume ([1]; day 14)	Tumor volume ([1]; day 18)	Tumor volume ([1]; day 21)
–	–	–	–	–	–	–	–	–	–	CCN(C)S(=O)(=O)Nc1ccc(F)c(Oc2ccc3ncc([C@@H]4COC5(CCN(C6CCC(c7cc8c(cc7F)c(N7CCC(=O)NC7=O)nn8C)CC6)CC5)C4)nc3c2)c1C#N (single isomer, unassigned) [Compound 54]	4.1%	106.6%	90 ± 27 mm^3	221 ± 11 mm^3	132 ± 13 mm^3	90 ± 14 mm^3	65 ± 13 mm^3	57 ± 13 mm^3	53 ± 13 mm^3	90 ± 27 mm^3
–	–	–	–	–	–	–	–	–	–	CCN(C)S(=O)(=O)Nc1ccc(F)c(Oc2ccc3ncn([C@H]4COC5(CCN(C6CC(c7cc8c(cc7F)c(N7CCC(=O)NC7=O)nn8C)C6)CC5)C4)c(=O)c3c2)c1C#N (single isomer, unassigned) [Compound 70]	0.9%	110.1%	19 ± 2 mm^3	221 ± 10 mm^3	111 ± 13 mm^3	66 ± 6 mm^3	44 ± 3 mm^3	34 ± 2 mm^3	24 ± 2 mm^3	19 ± 2 mm^3
–	–	–	–	–	–	–	–	–	–	CCN(C)S(=O)(=O)Nc1ccc(F)c(Oc2ccc3ncn(C4CC5(CCN(C6CCC(c7cc8c(cc7F)c(N7CCC(=O)NC7=O)nn8C)CC6F)CC5)C4)c(=O)c3c2)c1C#N (single isomer, unassigned) [Compound 83, 6-[2-cyano-3-[[ethyl(methyl)sulfamoyl]amino]-6-fluoro-phenoxy]-3-[7-[4-[3-(2,4-dioxohexahydropyrimidin-1-yl)-5-fluoro-1-methyl-indazol-6-yl]-2-fluoro-cyclohexyl]-7-azaspiro[3.5]nonan-2-yl]-4-oxo-quinazoline]	0.7%	110.3%	15 ± 1 mm^3	221 ± 11 mm^3	89 ± 11 mm^3	62 ± 7 mm^3	39 ± 3 mm^3	31 ± 2 mm^3	22 ± 1 mm^3	15 ± 1 mm^3
–	–	–	–	–	–	–	–	–	–	Cn1nc(N2CCC(=O)NC2=O)c2cc(F)c(C3CCC(N4CCC5(CC4)CC(n4cnc6ccc(Oc7c(F)ccc(NS(=O)(=O)C8CCCC8)c7C#N)cc6c4=O)C5)CC3)cc21 (single isomer, unassigned) [Compound 93, N-[2-cyano-3-[3-[7-[4-[3-(2,4-dioxohexahydropyrimidin-1-yl)-5-fluoro-1-methyl-indazol-6-yl]cyclohexyl]-7-azaspiro[3.5]nonan-2-yl]-4-oxo-quinazolin-6-yl]oxy-4-fluoro-phenyl]cyclopentanesulfonamide]	3.3%	107.4%	73 ± 18 mm^3	221 ± 9 mm^3	133 ± 6 mm^3	97 ± 6 mm^3	69 ± 5 mm^3	59 ± 5 mm^3	52 ± 4 mm^3	73 ± 18 mm^3
103000 ± 9270 ng/g	111000 ± 12000 ng/g	1.24 ± 0.0902 µg/mL	1.5 ± 0.574 µg/mL	0.985 ± 0.234 µg/mL	0.595 ± 0.0818 µg/mL	345 ± 57.4 ng/g	855 ± 257 ng/g	509 ± 101 ng/g	254 ± 7.8 ng/g	CCN(C)S(=O)(=O)Nc1ccc(F)c(Oc2ccc3ncc(OCC4CCN(C5CCC(c6cc7c(cc6F)c(N6CCC(=O)NC6=O)nn7C)CC5)CC4)nc3c2)c1C#N (single isomer, unassigned) [Compound 118, 7-[2-cyano-3-[[ethyl(methyl)sulfamoyl]amino]-6-fluoro-phenoxy]-2-[[1-[4-[3-(2,4-dioxohexahydropyrimidin-1-yl)-5-fluoro-1-methyl-indazol-6-yl]cyclohexyl]-4-piperidyl]methoxy]quinoxaline]	–	–	–	–	–	–	–	–	–	–
712 ± 282 ng/g	247 ± 33.7 ng/g	5.11 ± 0.867 µg/mL	0.26 ± 0.0843 µg/mL	0.155 ± 0.0278 µg/mL	0.00154 ± 0.000588 µg/mL	680 ± 72.8 ng/g	245 ± 34.7 ng/g	82.6 ± 21.8 ng/g	3.89 ng/g	CCN(C)S(=O)(=O)Nc1ccc(F)c(Oc2ccc3ncc(C4CC5(CCN(C6CCC(c7cc8c(cc7F)c(N7CCC(=O)NC7=O)nn8C)CC6)CC5)C4)nc3c2)c1C#N (single isomer, unassigned) [Compound 180, 7-[2-cyano-3-[[ethyl(methyl)sulfamoyl]amino]-6-fluoro-phenoxy]-2-[7-[4-[3-(2,4-dioxohexahydropyrimidin-1-yl)-5-fluoro-1-methyl-indazol-6-yl]cyclohexyl]-7-azaspiro[3.5]nonan-2-yl]quinoxaline]	–	–	–	–	–	–	–	–	–	–

Compound	concentration at 6 h [2, 3]	concentration at 12 h [2, 3]	concentration at 1 h [2, 4]	concentration at 6 h [2, 4]	concentration at 12 h [2, 4]	concentration at 24 h [2, 4]	concentration at 1 h [2, 5]	concentration at 6 h [2, 5]	concentration at 12 h [2, 5]	concentration at 24 h [2, 5]	T/C [1]	TGI [1]	Tumor Size on PG-D21 [1]	Tumor volume ([1]; day 0)	Tumor volume ([1]; day 4)	Tumor volume ([1]; day 7)	Tumor volume ([1]; day 11)	Tumor volume ([1]; day 14)	Tumor volume ([1]; day 18)	Tumor volume ([1]; day 21)
CCN(C)S(=O)(=O)Nc1ccc(F)c(Oc2ccc3ncn(C4CC5(CCN(C6CC7(C6)CN(c6cc8c(cc6F)c(N6CCC(=O)NC6=O)nn8C)C7)CC5)C4)c(=O)c3c2)c1C#N (stereo not shown) [Compound 141, 6-[2-cyano-3-[[ethyl(methyl)sulfamoyl]amino]-6-fluoro-phenoxy]-3-[7-[2-[3-(2,4-dioxohexahydropyrimidin-1-yl)-5-fluoro-1-methyl-indazol-6-yl]-2-azaspiro[3.3]heptan-6-yl]-7-azaspiro[3.5]nonan-2-yl]-4-oxo-quinazoline]	9730 ± 1380 ng/g	3050 ± 618 ng/g	17.7 ± 0.924 µg/mL	10.7 ± 1.42 µg/mL	2.53 ± 0.365 µg/mL	0.219 ± 0.0746 µg/mL	2120 ± 109 ng/g	2230 ± 114 ng/g	818 ± 121 ng/g	75.4 ± 24.3 ng/g	–	–	–	–	–	–	–	–	–	–
